In US20230175029A1, “ENZYME CASCADES BASED ON SUCROSE SYNTHASE AND PYROPHO[…] CONVERSION OF ADP TO ATP” (RHEINISCH-WE[…]-NISCHE HOCHSCHULE (RWTH) AACHEN, priority 2020, published 2023):

Key:
EcAGPase [1] = molecular target: T1, EcAGPase (Escherichia coli, UniProt P0A6V1); experiment: Influence of Fru-1,6-P2 concentration on activity of EcAGPase; format: biochemical, E. coli; parameters: His6; made in house; host or cells: E. coli BL21 (DE3), vector pET22b; conditions: for EcAGPase activity: 3 mM ADP-Glc, 3 mM PPi, pH 8, 37° C.
T1 sequence (P0A6V1 whole entry): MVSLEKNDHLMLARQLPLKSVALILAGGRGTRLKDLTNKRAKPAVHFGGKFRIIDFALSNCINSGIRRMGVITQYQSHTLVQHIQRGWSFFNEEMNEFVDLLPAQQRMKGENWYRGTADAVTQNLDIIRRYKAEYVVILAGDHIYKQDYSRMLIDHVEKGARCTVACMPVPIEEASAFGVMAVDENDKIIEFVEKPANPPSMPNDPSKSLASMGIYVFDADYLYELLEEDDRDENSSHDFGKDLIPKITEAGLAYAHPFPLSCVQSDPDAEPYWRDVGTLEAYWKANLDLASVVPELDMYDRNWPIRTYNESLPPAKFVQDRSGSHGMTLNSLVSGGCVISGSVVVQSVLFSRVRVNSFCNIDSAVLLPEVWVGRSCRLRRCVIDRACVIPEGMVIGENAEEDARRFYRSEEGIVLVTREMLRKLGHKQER
Description: Fru-1,6-P2 was used as an activator for EcAGPase. It is Fru-1,6-P2 a relatively expensive compound and its use in the EcAGPase reaction should be reduced as much as possible. Therefore, the activity of EcAGPase was investigated for different Fru-1,6-P2 concentrations to determine a minimum concentration of the activator.
The experiment included 3.9 μg/mL EcAGPase, 3 mM ADP-Glc, 3 mM PPi, 10 mM MgCl2 and Fru-1,6-P2 at concentrations ranging from 0.1 mM to 1 mM, as well as a control reaction without Fru-1,6-P2.

EcAGPase [2] = molecular target: T1, EcAGPase; experiment: Effect of Glc-1-P on ATP synthesis activity of EcAGPase; format: biochemical, E. coli; parameters: His6; made in house; host or cells: E. coli BL21 (DE3), vector pET22b; conditions: 3 mM ADP-Glc, 3 mM PPi
Excerpt: The EcAGPase prefers the ADP-Glc synthesis. Thus, the accumulation of Glc-1-P negatively affects the reaction equilibrium for ATP synthesis. Therefore, the effect of Glc-1-P on the ATP synthesis activity of EcAGPase was investigated.

EcAGPase [3] = molecular target: T1, EcAGPase; conditions: 2.5 mM ADP-Glc, 1 mM Fru-1,6-P2, pH 8, 37° C.
Description: The influence of PPi concentrations on the ATP synthesis activity of the EcAGPase used was investigated.
The experiment included 4.35 μg/mL EcAGPase, 2.5 mM ADP-Glc, 10 mM MgCl2, 1 mM Fru-1,6-P2 and PPi, at concentrations ranging from 0.75 mM to 10 mM, and a control reaction without PPi. ATP synthesis was performed in 600 μL of 100 mM HEPES buffer, pH 8 at 37° C. for 12 min. The synthesis was stopped at the respective measurement points with 28 mM SDS (final concentration 7 mM) and the analysis of the nucleotides (ADP-Glc, AMP, ADP, ATP) was performed by multiplex capillary electrophoresis (internal standards (final concentrations): 1 mM para-aminobenzoic acid and 1 mM 4-aminophthalic acid) and the analytes were detected at 254 nm.

For `O=C(COP(=O)(O)O)[C@@H](O)[C@H](O)[C@H](O)COP(=O)(O)O` [Fru-1,6-P2, fructose-1,6-bisphosphate], the EcAGPase activity (EcAGPase [1]; 0.25 mM Fru-1,6-P2) was 20 U/mg, the “EcAGPase activity, fold higher than without activator” value (EcAGPase [1]; 0.5 mM Fru-1,6-P2) was 12 fold and the EcAGPase activity (EcAGPase [1]; 0.5 mM Fru-1,6-P2) was 60 U/mg.
In the case of `O=P(O)(O)O[C@H]1O[C@H](CO)[C@@H](O)[C@H](O)[C@H]1O` [Glc-1-P, glucose-1-phosphate], the “activity of the enzyme relative to activity without addition of Glc-1-P” value (EcAGPase [2]; 1 mM Glc-1-P, 0.5 mM Fru-1,6-P2) is reported as 71%, the IC50 (EcAGPase [2]; 0.5 mM Fru-1,6-P2, pH 8, 37° C.) is reported as 1780 µM and the residual activity (EcAGPase [2]; 5 mM Glc-1-P, 0.5 mM Fru-1,6-P2) is reported as 27%.
In the case of `O=P(O)(O)OP(=O)(O)O` [PPi, inorganic pyrophosphate], the “PPi concentration at which EcAGPase shows a reduction in specific activity” value (EcAGPase [3]) is reported as “above 3 mM” and the “specific activity of EcAGPase” value (EcAGPase [3]; 7 mM PPi) is reported as 0.6 U/mg.
